ChEMBL document CHEMBL5303304, “EUbOPEN Chemogenomics Library - IncuCyte” (2023)

Key:
Type in all cases: toxicity, cell-based
[1] = test system: HEK-293T; experiment: Incucyte cell viability with HEK293T; conditions: human, 10 µM, compound concentration 10 uM
[2] = test system: U2OS; experiment: Incucyte cell viability with U2OS; conditions: human, 10 µM, compound concentration 10 uM
[3] = test system: Fibroblast; experiment: Incucyte cell viability with human fibroblast; conditions: 10 µM, compound concentration 10 uM
Further: unitless GR value; below 1 slowed growth and below 0 cell loss.

Compound | Growth Rate ([1]; 0 h, replicate number 1) | Growth Rate ([1]; 6 h, replicate number 1) | Growth Rate ([1]; 6 h, replicate number 2) | Growth Rate ([1]; 18 h, replicate number 1) | Growth Rate ([1]; 18 h, replicate number 2) | Growth Rate ([1]; 24 h, replicate number 1) | Growth Rate ([2]; 0 h, replicate number 1) | Growth Rate ([2]; 6 h, replicate number 1) | Growth Rate ([2]; 6 h, replicate number 2) | Growth Rate ([2]; 12 h, replicate number 2) | Growth Rate ([2]; 24 h, replicate number 1) | Growth Rate ([3]; 0 h, replicate number 1) | Growth Rate ([3]; 6 h, replicate number 1) | Growth Rate ([3]; 12 h, replicate number 2) | Growth Rate ([3]; 24 h, replicate number 2) | Growth Rate ([1]; 12 h, replicate number 1) | Growth Rate ([1]; 24 h, replicate number 2) | Growth Rate ([2]; 18 h, replicate number 2) | Growth Rate ([2]; 24 h, replicate number 2) | Growth Rate ([3]; 0 h, replicate number 2) | other results
COc1cc(-c2cn(C)c(=O)c3cnccc23)cc(OC)c1CN(C)C | 0.56 | 0.78 | 0.89 | 0.85 | 0.89 | 0.92 | 0.83 | 0.87 | 0.61 | 0.85 | 0.97 | 0.17 | 0.2 | 0.15 | 0.85 | – | – | – | – | – | Growth Rate ([2]; 12 h, replicate number 1): 0.86; Growth Rate ([3]; 6 h, replicate number 2): -0.34; Growth Rate ([3]; 12 h, replicate number 1): 0.48; Growth Rate ([3]; 18 h, replicate number 1): 0.56; Growth Rate ([3]; 18 h, replicate number 2): 0.6; Growth Rate ([3]; 24 h, replicate number 1): 0.58
Cl.O=S(=O)(c1cccc2c(I)cccc12)N1CCCNCC1 | – | -0.39 | – | 0.81 | – | 0.89 | -1 | – | 0.86 | – | – | – | -1 | 0.87 | 0.96 | 0.3 | 0.88 | – | – | – | Growth Rate ([3]; 6 h, replicate number 2): -0.05
N#Cc1c(SCc2csc(-c3ccc(Cl)cc3)n2)nc(N2CCCC2)c(C#N)c1-c1ccc(OCCO)cc1 | -0.68 | – | – | – | – | – | – | 0.87 | 0.8 | 0.77 | – | – | – | – | – | – | – | 0.93 | 0.97 | -1 | Growth Rate ([1]; 0 h, replicate number 2): -0.75; Growth Rate ([2]; 0 h, replicate number 2): 0.14
COc1ccc(OC(=O)N(CC(=O)O)Cc2ccc(OCCc3nc(-c4ccccc4)oc3C)cc2)cc1 [MURAGLITAZAR] | – | 0.89 | 0.07 | – | 0.51 | – | -0.96 | – | 0.71 | 0.94 | – | – | 0.85 | 0.56 | 0.97 | 0.94 | 0.5 | – | 0.87 | – | Growth Rate ([1]; 0 h, replicate number 2): -1; Growth Rate ([1]; 12 h, replicate number 2): 0.42; Growth Rate ([2]; 0 h, replicate number 2): 0.98; Growth Rate ([3]; 6 h, replicate number 2): 0.43; Growth Rate ([3]; 12 h, replicate number 1): 0.76; Growth Rate ([3]; 18 h, replicate number 1): 0.79; Growth Rate ([3]; 18 h, replicate number 2): 0.72
Cc1cc(C2CCCNC2)ccc1Nc1ncc(Br)c(NCc2cccc3c2C(C)(C)C(=O)N3)n1 (stereo not given) | – | 0.39 | 0.05 | 0.07 | 0.12 | -0.01 | -0.95 | – | 0.86 | 0.61 | 0.8 | – | – | 0.81 | 0.32 | 0.08 | 0.13 | 0.46 | 0.37 | – | Growth Rate ([1]; 12 h, replicate number 2): 0.09; Growth Rate ([2]; 18 h, replicate number 1): 0.88; Growth Rate ([3]; 18 h, replicate number 1): 0.61; Growth Rate ([3]; 18 h, replicate number 2): 0.49; Growth Rate ([3]; 24 h, replicate number 1): 0.34
O=C(O)CCCCCC[C@@H]1C(=O)NC(=O)N1CCC(O)C1CCCCC1 (stereo not given in full) | -0.07 | – | – | – | – | – | 0.14 | 0.54 | 0.99 | 0.93 | – | -0.99 | -0.07 | – | – | – | – | 0.87 | 0.92 | 0.52 | Growth Rate ([1]; 0 h, replicate number 2): 0.52; Growth Rate ([3]; 12 h, replicate number 1): 0.61; Growth Rate ([3]; 18 h, replicate number 1): 0.69; Growth Rate ([3]; 24 h, replicate number 1): 0.75
Nc1n[nH]c2nc(-c3ccc(NS(=O)(=O)c4cccc(Cl)c4Cl)cc3)cnc12 | – | 0.93 | 0.42 | – | 0.84 | – | 0.36 | – | – | – | – | 0.67 | -0.19 | – | – | 0.83 | 0.95 | – | – | -0.78 | Growth Rate ([1]; 12 h, replicate number 2): 0.81; Growth Rate ([3]; 6 h, replicate number 2): -1; Growth Rate ([3]; 12 h, replicate number 1): -0.95
O=c1c(Br)ccc2n1C[C@@H]1CNC[C@H]2C1 | – | 0.59 | – | 0.61 | – | 0.89 | – | – | 0.92 | – | – | 0.52 | -0.94 | – | 0.89 | 0.4 | – | – | – | -0.26 | –
Cc1c(N2CCCC2)nc2ccc(Br)cc2c1C(=O)NC[C@H](CCC(=O)O)c1ccccc1Cl.Cl.O | 0.22 | – | – | – | – | – | – | 0.65 | – | – | 0.91 | -1 | 0.4 | 0.93 | – | – | – | 0.99 | 0.92 | -0.4 | Growth Rate ([1]; 0 h, replicate number 2): -0.18; Growth Rate ([2]; 0 h, replicate number 2): -0.04; Growth Rate ([2]; 12 h, replicate number 1): 0.97; Growth Rate ([2]; 18 h, replicate number 1): 0.93
CC(=O)c1ccc2c(c1)/C(=C(/Nc1cccc(C#N)c1)c1ccc3c(c1)OCCO3)C(=O)N2 | -0.8 | 0.26 | 0.65 | -0.15 | -0.03 | -0.16 | – | – | – | 0.72 | 0.52 | 0.26 | – | – | 0.84 | -0.22 | -0.02 | 0.5 | 0.43 | -0.78 | Growth Rate ([1]; 12 h, replicate number 2): 0.12; Growth Rate ([2]; 18 h, replicate number 1): 0.73
